Measured values: patent US11072583B2, “Indole (sulfomyl) n-hydroxy benzamide derivatives as selective HDAC inhibitors” (COUNCIL OF SCIENTIFIC & INDUSTRIAL RESEARCH, priority 2017, dated 2021)
Where two headings read alike, the source gives them in different places.

Key:
Type in all cases: cell-based, human
[1] = tested on: HeLa (Cervical cancer cell line); experiment: Anti-proliferative assay (Cell Titer-Glo), HeLa
[2] = tested on: MCF-7 (Breast cancer cell line); experiment: Anti-proliferative assay (Cell Titer-Glo), MCF-7
[3] = tested on: DU-145 (Prostate cancer cell line); experiment: Anti-proliferative assay (Cell Titer-Glo), DU-145
Procedure: Cell culture & Reagents: All cell lines, used for the anti-proliferative screen, were obtained from American Type Culture Collection (ATCC). HeLa (Cervical cancer cell line), MCF-7 (Breast cancer cell line) and DU-145 (Prostate cancer cell line) were cultured in Dulbecco's modified Eagle's medium (DMEM, GIBCO), containing 10% fetal bovine serum (FBS; Life Technologies), penicillin and streptomycin (10,000 U/mL), at 37° C. and in 5% CO2. Cell Titer-Glo® Luminescent Cell Viability Assay kit (Cat No. G7573) was purchased from Promega to determine the number of viable cells in culture based on quantitation of the ATP present, which signals the presence of metabolically active cells.
Anti-Proliferative assay: For anti-proliferative screening, 2500 cells per well (For HeLa and DU-145 cell lines) and 5000 cells per well (for MCF-7 cell line) numbers of cells were seeded in a white opaque plate and incubated for 24 Hrs in 5% CO2 incubator at 37° C. After 24 Hrs, compound dilutions were prepared as per the required concentrations in cell culture medium (DMEM) and diluted compounds were added and incubated with cells for 72 Hrs at 37° C. in 5% CO2 incubator in the same 96 well-plate. After 72 Hrs, Cell Titer-Glo® reagent vial was reconstituted with 100 mL of Cell Titer Glo buffer and 100 μL of prepared reagent was added to each well. After incubating at room temperature for 30 minutes, luminescence was captured using luminescence plate reader (EnVision® Multilabel Plate Reader from Perkin Elmer). Generated data was exported to the excel file and data was analyzed using Graph Pad Prism to calculate IC50 value of the unknown inhibitor.
Compounds were screened against different cancer cell lines [HeLa, DU-145, MCF-7 and SKOV3] for anti-proliferative activity using luminescence based cell proliferation assay using Promega Glo kit are shown in FIG. 3.

[4] = tested on: SKOV3 (Ovarian cancer cells); experiment: Anti-proliferative assay, SKOV3
[5] = Table 1, reference compounds, read-out: IC50 DU-145 cells

| IC50 ([1]; Homo sapiens, HeLa, Table 1, reference compounds, read-out: IC50 HeLa cells) | IC50 ([1]; Homo sapiens, HeLa, Table 2, reference compounds section, read-out: HeLa IC50) | IC50 ([2]; Homo sapiens, MCF7, Table 1, reference compounds, read-out: IC50 MCF-7 cells) | IC50 ([2]; Homo sapiens, MCF7, Table 2, reference compounds section, read-out: MCF-7 IC50) | IC50 ([3]; Homo sapiens, DU-145, Table 1, reference compounds, read-out: IC50 DU-145 cells) | IC50 ([3]; Homo sapiens, DU-145, Table 2, reference compounds section, read-out: DU-145 IC50) | IC50 ([4]; Homo sapiens, SK-OV-3, Table 1, reference compounds, read-out: IC50 SKOV3 cells) | IC50 ([4]; Homo sapiens, SK-OV-3, Table 2, reference compounds section, read-out: SKOV3 IC50) | SMILES | IC50 ([1]; Table 1, reference compounds, read-out: IC50 HeLa cells) | IC50 ([2]; Table 1, reference compounds, read-out: IC50 MCF-7 cells) | IC50 [3, 5] | IC50 ([4]; Table 1, reference compounds, read-out: IC50 SKOV3 cells) |
| --- | --- | --- | --- | --- | --- | --- | --- | --- | --- | --- | --- | --- |
| – | – | – | – | – | – | – | – | CC(/C=C/C(=O)NO)=C\[C@@H](C)C(=O)c1ccc(N(C)C)cc1 [TSA, Trichostatin A] | 124 nM | 153 nM | 539 nM | 242 nM |
| – | – | – | – | – | – | – | – | O=C(CCCCCCC(=O)Nc1ccccc1)NO [SAHA] | – | – | 796 nM | – |
| 619 nM | 387 nM | 408 nM | 254 nM | 967 nM | 382 nM | 296 nM | 296 nM | COc1ccc(C[C@H](N)C(=O)N[C@H]2[C@@H](O)[C@H](n3cnc4c(N(C)C)ncnc43)O[C@@H]2CO)cc1 [Puromycin] | – | – | – | – |
